Source: patent publication US8435549B2, “Halogen alkoxy spirocyclic tetramic and tetronic acid derivatives” (Bayer Cropscience AG, priority 2007, dated 2013)
Values belong to the compound of their own block, whether it stands above or below them.

Columns and labels:
[1] = Determination of the log P values (LC/MS, HCOOH method); assay type: physicochemical; conditions: for log P: HPLC reversed-phase C18, HCOOH method; for chromatographic logP: reversed-phase C18 HPLC column, acidic range (pH 3.4)
Experimental: Determination of the Log P Values (LC/MS, HCOOH Method):
The log P values given in the tables were determined in accordance with EEC Directive 79/831 Annex V.A8 by HPLC (High Performance Liquid Chromatography) using a reversed-phase column (C 18). Temperature: 55° C.
Mobile phases for determination in the acidic range (pH 3.4):
Mobile phase A: acetonitrile+1 ml formic acid/liter. Mobile phase B: water+0.9 ml formic acid/liter. Gradient: from 10% mobile phase A/90% mobile phase B to 95% mobile phase A/5% mobile phase B over 4.25 min. Calibration was carried out using unbranched alkan-2-ones (having 3 to 16 carbon atoms) with known log P values (determination of the log P values by the retention times using linear interpolation between two successive alkanones). The lambda max values were determined in the maxima of the chromatographic signals using the UV spectra from 200 nm to 400 nm.

[2] = system: green peach aphid (Myzus persicae); assay: Enhancement of activity by ammonium/phosphonium salts, Myzus persicae test; assay type: in vivo; conditions: Myzus persicae on bell pepper, active compound 4 ppm
Experimental: To produce a suitable preparation of active compound, 1 part by weight of active compound is mixed with the stated amounts of solvent and emulsifier, and the concentrate is diluted with water to the desired concentration. For application with ammonium or phosphonium salts, these are added to the spray liquor in a concentration of 1000 ppm.
Bell pepper plants (Capsicum annuum) which are heavily infested by the green peach aphid (Myzus persicae) are treated by spraying to runoff point with the active compound preparation of the desired concentration. After the desired period of time, the kill in % is determined. 100% means that all animals have been killed; 0% means that none of the animals have been killed.

crop plants = assay: Use of safeners: plant compatibility of test substances in crop plants; assay type: in vivo
Experimental: • Seeds of monocotyledonous and dicotyledonous weed and crop plants are placed in sandy loam in wood fiber pots, covered with soil and cultivated in a greenhouse under good growth conditions. 2 to 3 weeks after sowing, the test plants are treated at the one-leaf stage. The test compounds, formulated as wettable powders (WP) are then, with a water application rate of 600 l/ha (converted), with 0.2% of wetting agent added, sprayed at various dosages onto the green parts of the plants. After the test plants have been kept in the greenhouse under optimum growth conditions for about 3 weeks, the activity of the preparations is rated visually in comparison to untreated controls (herbicidal activity in percent: 100% activity=the plants have died, 0% activity=like control plants). • In addition to the compounds mentioned above, the following compounds show a post-emergence action of ≧80% against Echinocloa crus-galli, Lolium multiflorum and Setaria viridis at 80 g/ha: I-1-a-2, I-1-a-4, I-1-a-5, I-1-a-7, I-1-a-9, I-1-a-12, I-1-a-13, I-1-a-14, I-1-b-3.
Use of Safeners: • If it is additionally to be tested as to whether safeners can improve the plant compatibility of test substances in the case of crop plants, the following options are used for applying the safeners: • seeds of the crop plants are, before sowing, dressed with the safener substance (the amount of safener stated in percent, based on the weight of the seed) • before application of the test substances, the crop plants are sprayed with the safener at a certain application rate per hectare (usually 1 day before the application of the test substances) • the safener is applied together with the test substance as a tank mix (the amount of safener stated in g/ha or as a ratio, based on the herbicide).
• Application of the safener 1 day prior to the herbicide

[3] = system: cotton aphid (Aphis gossypii); assay: Enhancement of activity by ammonium/phosphonium salts in combination with penetrants, Aphis gossypii test; assay type: in vivo
Experimental: To produce a suitable preparation of active compound, 1 part by weight of active compound is mixed with the stated amounts of solvent and emulsifier, and the concentrate is diluted with emulsifier-containing water to the desired concentration. For application with ammonium or phosphonium salts and penetrants (rapeseed oil methyl esters 500 EW) these are added to the spray liquor in each case in a concentration of 1000 ppm.
Cotton plants (Gossypium hirsutum) which are heavily infested by the cotton aphid (Aphis gossypii) are treated by spraying to runoff point with the active compound preparation of the desired concentration.
After the desired period of time, the kill in % is determined. 100% means that all the aphids have been killed; 0% means that none of the aphids have been killed.

[4] = compounds of formula (I-2-b), single isomer as labelled
[5] = α isomer of the α + β mixture, 55° C.
[6] = β isomer of the α + β mixture, 55° C.
[7] = single isomer isolated by preparative HPLC (formula I-2-a)

SMILES: Cc1cc(C)c(C2=C(OC(=O)C(C)C)[C@]3(CC[C@H](OCC(F)(F)F)CC3)OC2=O)cc1C [Example I-2-b-7]
log P [1, 4]: 5.14

SMILES: COc1cc(C)cc(C)c1C1=C(O)C2(CCC(OCC(F)(F)F)CC2)OC1=O (mixture of isomers) [Example I-2-a-11]
log P [1, 5]: α 3.07
log P [1, 6]: β 2.94

SMILES: Cc1cc(C)c(C2=C(OC(=O)C(C)C)C3(CCC(OCC(F)(F)F)CC3)OC2=O)cc1C (stereo not shown) [Example I-2-b-8]
log P [1, 4]: 4.87

log P [1, 4]: 4.62
SMILES: Cc1ccc(C)c(C2=C(OC(=O)C(C)C)C3(CCC(OCC(F)(F)F)CC3)OC2=O)c1 (single isomer, unassigned) [Example I-2-b-6]

SMILES: Cc1ccc(-c2ccc(Cl)cc2)cc1C1=C(OC(=O)C(C)C)[C@]2(CC[C@H](OCC(F)(F)F)CC2)OC1=O [Example I-2-b-13]
log P [1, 4]: 5.84

log P [1, 4]: 6.02
SMILES: CCc1cc(-c2ccc(Cl)cc2)cc(C)c1C1=C(OC(=O)C(C)C)C2(CCC(OCC(F)(F)F)CC2)OC1=O (single isomer, unassigned) [I-2-b-18]

SMILES: Cc1cc(Cl)cc(C)c1C1=C(OC(=O)C(C)C)C2(CCC(OCC(F)(F)F)CC2)OC1=O (single isomer, unassigned) [Example I-2-b-16]
log P [1, 4]: 4.97

log P [1, 4]: 4.48
SMILES: COc1cc(C)cc(C)c1C1=C(OC(=O)C(C)C)C2(CCC(OCC(F)(F)F)CC2)OC1=O (single isomer, unassigned) [I-2-b-20]

SMILES: Cc1cc(C)c(C2=C(OC(=O)C(C)C)C3(CCC(OCC(F)(F)F)CC3)OC2=O)c(C)c1 (stereo not shown) [Example I-2-b-10]
log P [1, 4]: 4.88

log P [1, 4]: 5.14
SMILES: Cc1cc(C)c(C2=C(OC(=O)C(C)C)[C@]3(CC[C@H](OCC(F)(F)F)CC3)OC2=O)c(C)c1 [Example I-2-b-9]

log P [1, 5]: α 3.54
log P [1, 6]: β 3.41
SMILES: CCc1cc(C)cc(C)c1C1=C(O)C2(CCC(OCC(F)(F)F)CC2)OC1=O (mixture of isomers) [Example I-2-a-5]

log P [1, 5]: α 3.34
log P [1, 6]: β 3.20
SMILES: Cc1cc(C)c(C2=C(O)C3(CCC(OCC(F)(F)F)CC3)OC2=O)cc1C (mixture of isomers) [Example I-2-a-4]

SMILES: Cc1cc(C)c(C2=C(O)C3(CCC(OCC(F)(F)F)CC3)NC2=O)c(C)c1 (mixture of isomers) [Example I-1-a-5]
Kill rate/% after 6 days ([2]; +AS (1000 ppm)): 99%
Kill rate/% after 6 days ([2]; without AS): 5%

log P [1, 4]: 5.83
SMILES: Cc1ccc(-c2ccc(Cl)cc2)c(C)c1C1=C(OC(=O)C(C)C)C2(CCC(OCC(F)(F)F)CC2)OC1=O (stereo not shown) [Example I-2-b-12]

chromatographic logP ([1]; pH 3.4, HPLC): 5.4
SMILES: CCc1cc(C)cc(C)c1C1=C(OC(=O)C(C)C)[C@]2(CC[C@@H](OCC(F)(F)F)CC2)OC1=O [Example I-2-b-2]

log P [1, 4]: 4.72
SMILES: COc1cc(C)cc(C)c1C1=C(OC(=O)C(C)C)C2(CCC(OCC(F)(F)F)CC2)OC1=O (single isomer, unassigned) [I-2-b-19]

log P [1, 4]: 4.88
SMILES: Cc1ccc(C)c(C2=C(OC(=O)C(C)C)C3(CCC(OCC(F)(F)F)CC3)OC2=O)c1 (single isomer, unassigned) [Example I-2-b-5]

log P [1, 4]: 6.33
SMILES: CCc1cc(-c2ccc(Cl)cc2)cc(C)c1C1=C(OC(=O)C(C)C)C2(CCC(OCC(F)(F)F)CC2)OC1=O (single isomer, unassigned) [I-2-b-17]

SMILES: CCc1cc(C)cc(C)c1C1=C(OC(=O)C(C)C)C2(CCC(OCC(F)(F)F)CC2)OC1=O (stereo not shown) [Example I-2-b-4]
log P [1, 4]: 5.15

SMILES: Cc1ccc(-c2ccc(Cl)cc2)c(C)c1C1=C(OC(=O)C(C)C)[C@]2(CC[C@H](OCC(F)(F)F)CC2)OC1=O [Example I-2-b-11]
log P [1, 4]: 6.11

SMILES: Cc1cc(C)c(C2=C(O)C3(CCC(OCC(F)(F)F)CC3)OC2=O)c(C)c1 (stereo not shown) [Example I-2-a-10]
log P [1, 7]: 3.16

log P [1, 5]: α 3.10
log P [1, 6]: β 2.95
SMILES: Cc1ccc(C)c(C2=C(O)C3(CCC(OCC(F)(F)F)CC3)OC2=O)c1 (mixture of isomers) [Example I-2-a-2]

SMILES: Cc1ccc(-c2ccc(Cl)cc2)c(C)c1C1=C(O)C2(CCC(OCC(F)(F)F)CC2)OC1=O (mixture of isomers) [Example I-2-a-6]
log P [1, 5]: α 4.29
log P [1, 6]: β 4.13

SMILES: Cc1cc(C)c(C2=C(O)C3(CCC(OCC(F)(F)F)CC3)OC2=O)c(C)c1 (mixture of isomers) [Example I-2-a-3]
log P [1, 5]: α 3.31
log P [1, 6]: β 3.18

SMILES: Cc1cc(Cl)cc(C)c1C1=C(OC(=O)C(C)C)C2(CCC(OCC(F)(F)F)CC2)OC1=O (single isomer, unassigned) [Example I-2-b-15]
log P [1, 4]: 5.25

SMILES: Cc1cc(Cl)cc(C)c1C1=C(O)C2(CCC(OCC(F)(F)F)CC2)OC1=O (mixture of isomers) [Example I-2-a-8]
log P [1, 5]: 3.39
log P [1, 6]: 3.25

SMILES: CCc1cc(C)cc(C)c1C1=C(OC(=O)C(C)C)[C@]2(CC[C@H](OCC(F)(F)F)CC2)OC1=O [Example I-2-b-3]
log P [1, 4]: 5.44

SMILES: Cc1ccc(-c2ccc(Cl)cc2)cc1C1=C(OC(=O)C(C)C)C2(CCC(OCC(F)(F)F)CC2)OC1=O (stereo not shown) [Example I-2-b-14]
log P [1, 4]: 5.55

chromatographic logP ([1]; pH 3.4, HPLC): 5.69
SMILES: CCc1cc(C)cc(CC)c1C1=C(OC(=O)C(C)C)[C@]2(CC[C@H](OCC(F)(F)F)CC2)OC1=O [Example I-2-b-1]

SMILES: CCc1cc(-c2ccc(Cl)cc2)cc(C)c1C1=C(O)C2(CCC(OCC(F)(F)F)CC2)OC1=O (mixture of isomers) [Example I-2-a-12]
log P [1, 5]: α 4.51
log P [1, 6]: β 4.36

SMILES: CCc1cc(C)cc(Br)c1C1=C(O)C2(CCC(OCC(F)(F)F)CC2)NC1=O (single isomer, unassigned) [Example I-1-a-7]
10 days after application Summer wheat observed (%) (crop plants; 12.5 g a.i./ha): 40%
28 days after application Summer wheat observed (%) (crop plants; 12.5 g a.i./ha): 10%
10 days after application Summer wheat observed (%) (crop plants; 25 g a.i./ha): 50%
28 days after application Summer wheat observed (%) (crop plants; 25 g a.i./ha): 20%
10 days after application Summer wheat observed (%) (crop plants; 50 g a.i./ha): 60%
28 days after application Summer wheat observed (%) (crop plants; 50 g a.i./ha): 30%
10 days after application Summer wheat observed (%) (crop plants; 100 g a.i./ha): 60%
28 days after application Summer wheat observed (%) (crop plants; 100 g a.i./ha): 40%

SMILES: Cc1cc(C)c(C2=C(O)C3(CCC(OCC(F)(F)F)CC3)OC2=O)c(C)c1 (stereo not shown) [Example I-2-a-9]
log P [1, 7]: 3.29

chromatographic logP ([1]; pH 3.4, α isomer of the isomer mixture, HPLC): 3.78
chromatographic logP ([1]; pH 3.4, β isomer of the isomer mixture, HPLC): 3.64
SMILES: CCc1cc(C)cc(CC)c1C1=C(O)C2(CCC(OCC(F)(F)F)CC2)OC1=O (stereo not shown) [Example I-2-a-1]

SMILES: Cc1ccc(-c2ccc(F)cc2)c(C)c1C1=C(O)C2(CCC(OCC(F)(F)F)CC2)NC1=O (single isomer, unassigned) [Example I-1-a-3]
Kill rate/% after 6 days ([3]; 4 ppm, +AS (1000 ppm)): 0%
Kill rate/% after 6 days ([3]; 4 ppm, +RME (1000 ppm)): 5%
Kill rate/% after 6 days ([3]; 4 ppm, +RME + AS (1000 ppm each)): 25%
Kill rate/% after 6 days ([3]; 4 ppm, no additive): 0%
Kill rate/% after 6 days ([3]; 20 ppm, +AS (1000 ppm)): 5%
Kill rate/% after 6 days ([3]; 20 ppm, +RME (1000 ppm)): 10%
Kill rate/% after 6 days ([3]; 20 ppm, +RME + AS (1000 ppm each)): 90%
Kill rate/% after 6 days ([3]; 20 ppm, no additive): 25%
